Source: patent publication US20230391739A1, “ARYL DERIVATIVES FOR TREATING TRPM3 MEDIATED DISORDERS” (Katholieke Universiteit Leuven, priority 2020, published 2023)

Each compound was assayed against T1, mouse TRPM3α2 (mTRPM3) ion channel (Mus musculus, UniProt J9SQF3) (assay: TRPM3 ion channel driven Ca2+ uptake, Fluo-4 AM assay, PS-stimulated (mTRPM3)). Conditions: TRPM3 overexpressing flip-in HEK293 cells stimulated with Pregnenolone sulfate (PS) 50 μM, activity ranges A, B, C.
T1 construct: expressed in transfected cells; host or cells: flip-in HEK293
T1 sequence (J9SQF3 1-1709 isoform J9SQF3-12): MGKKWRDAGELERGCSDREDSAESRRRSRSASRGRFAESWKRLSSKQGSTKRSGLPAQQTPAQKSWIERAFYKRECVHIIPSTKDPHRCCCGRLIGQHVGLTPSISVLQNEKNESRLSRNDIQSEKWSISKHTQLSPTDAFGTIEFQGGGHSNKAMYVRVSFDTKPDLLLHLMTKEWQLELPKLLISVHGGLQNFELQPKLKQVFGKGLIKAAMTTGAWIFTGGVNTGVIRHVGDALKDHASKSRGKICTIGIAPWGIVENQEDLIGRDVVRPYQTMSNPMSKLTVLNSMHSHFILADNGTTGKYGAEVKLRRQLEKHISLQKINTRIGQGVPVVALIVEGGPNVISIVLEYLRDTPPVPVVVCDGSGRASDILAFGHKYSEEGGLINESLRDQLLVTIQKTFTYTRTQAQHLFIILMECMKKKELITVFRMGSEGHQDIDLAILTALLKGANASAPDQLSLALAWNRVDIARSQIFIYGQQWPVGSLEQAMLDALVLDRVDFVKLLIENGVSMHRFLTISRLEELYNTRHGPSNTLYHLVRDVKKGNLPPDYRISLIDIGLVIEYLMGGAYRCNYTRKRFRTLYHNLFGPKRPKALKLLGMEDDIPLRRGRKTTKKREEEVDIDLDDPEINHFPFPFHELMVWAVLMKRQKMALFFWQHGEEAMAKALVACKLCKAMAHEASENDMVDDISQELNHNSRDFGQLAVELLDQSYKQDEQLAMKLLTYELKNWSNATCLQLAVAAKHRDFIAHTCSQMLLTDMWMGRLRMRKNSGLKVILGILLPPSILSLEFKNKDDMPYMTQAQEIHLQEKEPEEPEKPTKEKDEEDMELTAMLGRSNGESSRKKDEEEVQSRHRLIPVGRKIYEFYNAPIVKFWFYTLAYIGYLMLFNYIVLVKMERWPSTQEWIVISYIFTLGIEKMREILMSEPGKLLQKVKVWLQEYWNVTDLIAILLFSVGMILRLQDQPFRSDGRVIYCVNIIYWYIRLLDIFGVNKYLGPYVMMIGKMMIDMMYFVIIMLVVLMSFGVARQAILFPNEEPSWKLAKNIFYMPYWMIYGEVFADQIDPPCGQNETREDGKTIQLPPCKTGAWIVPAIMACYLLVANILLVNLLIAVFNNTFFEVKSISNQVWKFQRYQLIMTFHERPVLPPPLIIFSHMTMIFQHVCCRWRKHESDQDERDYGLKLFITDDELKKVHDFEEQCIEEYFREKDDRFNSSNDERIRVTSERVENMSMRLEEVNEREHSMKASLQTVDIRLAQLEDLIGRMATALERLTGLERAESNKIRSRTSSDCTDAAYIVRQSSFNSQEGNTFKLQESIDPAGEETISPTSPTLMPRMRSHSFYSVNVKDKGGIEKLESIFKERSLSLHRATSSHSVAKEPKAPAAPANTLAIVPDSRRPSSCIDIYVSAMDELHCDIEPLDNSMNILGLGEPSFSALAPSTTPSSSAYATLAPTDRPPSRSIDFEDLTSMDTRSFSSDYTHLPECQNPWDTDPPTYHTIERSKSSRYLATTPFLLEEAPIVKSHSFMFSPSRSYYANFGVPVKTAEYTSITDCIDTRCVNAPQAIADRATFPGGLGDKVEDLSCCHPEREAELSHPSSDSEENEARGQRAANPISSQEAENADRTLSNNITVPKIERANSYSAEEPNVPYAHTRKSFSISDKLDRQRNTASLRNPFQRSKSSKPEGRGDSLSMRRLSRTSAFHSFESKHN
Type: cell-based
Method in brief: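 Ca²⁺ influx through mouse TRPM3α2, opened by 50 μM pregnenolone sulfate, was tracked with Fluo-4 AM in stably transfected HEK293 cells read directly after seeding onto pre-dispensed compound.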
With CCN1CCC[C@H]1CNC(=O)c1c(C)oc2ccc(OCc3ccccc3)cc12 [Cpd 152, (S)-5-(benzyloxy)-N-((l-ethylpyrrolidin-2-yl)methyl)-2-methylbenzofuran-3-carboxamide] the IC50 was 1 to 20 µM. For CCN1CCC[C@@H]1CNC(=O)c1c(C)oc2ccc(OCc3ccccc3)cc12 [Cpd 153, (R)-5-(benzyloxy)-N-((l-ethylpyrrolidin-2-yl)methyl)-2-methylbenzofuran-3-carboxamide], the IC50 was < 1 µM. Work on Cc1ccc(COc2ccc3oc(C)c(C(=O)NC4CCN(C)CC4)c3c2)cc1 [Cpd 154, 2-methyl-5-((4-methylbenzyl)oxy)-N-(1-methylpiperidin-4-yl)benzofuran-3-carboxamide] yielded an IC50 of 1 to 20 µM. For Cc1oc2ccc(OCc3ccccc3)cc2c1C(=O)NC1CCN(C)C(C)C1 (stereo not drawn) [Cpd 155, 5-(benzyloxy)-N-(1,2-dimethylpiperidin-4-yl)-2-methylbenzofuran-3-carboxamide], the IC50 was < 1 µM. For Cc1oc2ccc(OCc3ccccc3)cc2c1C(=O)N(C)C1CCN(C)CC1 [Cpd 156, 5-(benzyloxy)-N,2-dimethyl-N-(1-methylpiperidin-4-yl)benzofuran-3-carboxamide], the IC50 was 1 to 20 µM. With Cc1oc2ccc(OCc3cccc(CN)c3)cc2c1C(=O)NC1CCNC1=O (stereo not drawn) [Cpd 157, 5-((3-(aminomethyl)benzyl)oxy)-2-methyl-N-(2-oxopyrrolidin-3-yl)benzofuran-3-carboxamide] the IC50 was > 20 µM. For Cc1oc2ccc(OCc3ccccc3)cc2c1C(=O)N[C@H]1CN[C@H](C(N)=O)C1 [Cpd 158, (2S,4R)-4-(5-(benzyloxy)-2-methylbenzofuran-3-carboxamido)pyrrolidine-2-carboxamide], the IC50 was < 1 µM. COC1CCC(NC(=O)c2c(C)oc3ccc(OCc4ccccc4)cc23)CC1 (stereo not drawn) [Cpd 159, 5-(benzyloxy)-N-(4-methoxycyclohexyl)-2-methylbenzofuran-3-carboxamide] was tested, and the IC50 was 1 to 20 µM. Cc1oc2ccc(OCc3ccccc3)cc2c1C(=O)N[C@@H]1CN[C@@H](C(=O)O)C1 [Cpd 163, (2R,4S)-4-(5-(benzyloxy)-2-methylbenzofuran-3-carboxamido)pyrrolidine-2-carboxylic acid] showed an IC50 of 1 to 20 µM. With COc1ccccc1COc1ccc2oc(C)c(C(=O)NC3CCNC3=O)c2c1 (stereo not drawn) [Cpd 164, 5-((2-methoxybenzyl)oxy)-2-methyl-N-(2-oxopyrrolidin-3-yl)benzofuran-3-carboxamide] the IC50 was < 1 µM. Cc1oc2ccc(OCc3ccccc3)cc2c1C(=O)NCCN1CCOCC1 [Cpd 165, 5-(benzyloxy)-2-methyl-N-(2-morpholinoethyl)benzofuran-3-carboxamide] gave an IC50 of 1 to 20 µM. Cc1oc2ccc(OCc3ccccc3)cc2c1C(=O)NC1CC(CO)(CO)C1 [Cpd 166, 5-(benzyloxy)-N-(3,3-bis(hydroxymethyl)cyclobutyl)-2-methylbenzofuran-3-carboxamide] was tested, and the IC50 was < 1 µM. For Cc1oc2ccc(OCc3ccccc3)cc2c1C(=O)NC1(CO)CCOCC1 [Cpd 167, 5-(benzyloxy)-N-(4-(hydroxymethyl)tetrahydro-2H-pyran-4-yl)-2-methylbenzofuran-3-carboxamide], the IC50 was < 1 µM. With Cc1oc2ccc(OCc3cccc(F)c3)cc2c1C(=O)NC1CCN(C)CC1 [Cpd 168, 5-((3-fluorobenzyl)oxy)-2-methyl-N-(1-methylpiperidin-4-yl)benzofuran-3-carboxamide] the IC50 was 1 to 20 µM. For Cc1ccc(COc2ccc3oc(C)c(C(=O)NS(=O)(=O)C4CC4)c3c2)cc1 [Cpd 169, N-(cyclopropylsulfonyl)-2-methyl-5-((4-methylbenzyl)oxy)benzofuran-3-carboxamide], the IC50 was 1 to 20 µM. Cc1cccc(COc2ccc3oc(C)c(C(=O)NS(=O)(=O)C4CC4)c3c2)c1 [Cpd 170, N-(cyclopropylsulfonyl)-2-methyl-5-((3-methylbenzyl)oxy)benzofuran-3-carboxamide] was tested, and the IC50 was 1 to 20 µM. In the case of Cc1oc2ccc(OCc3cccc(F)c3F)cc2c1C(=O)NC1CCNC1=O (stereo not drawn) [Cpd 171, 5-((2,3-difluorobenzyl)oxy)-2-methyl-N-(2-oxopyrrolidin-3-yl)benzofuran-3-carboxamide], the IC50 is reported as < 1 µM. For Cc1oc2ccc(OCc3c(F)cccc3F)cc2c1C(=O)NC1CCNC1=O (stereo not drawn) [Cpd 172, 5-((2,6-difluorobenzyl)oxy)-2-methyl-N-(2-oxopyrrolidin-3-yl)benzofuran-3-carboxamide], the IC50 was < 1 µM. Cc1oc2ccc(OCc3ccccc3)cc2c1C(=O)NC1CCNCC1(F)F (stereo not drawn) [Cpd 173, 5-(benzyloxy)-N-(3,3-difluoropiperidin-4-yl)-2-methylbenzofuran-3-carboxamide] was tested, and the IC50 was < 1 µM. With Cc1oc2ccc(OCc3ccccc3)cc2c1C(=O)NCC(O)c1cccnc1 (stereo not drawn) [Cpd 174, 5-(benzyloxy)-N-(2-hydroxy-2-(pyridin-3-yl)ethyl)-2-methylbenzofuran-3-carboxamide] the IC50 was 1 to 20 µM. Cc1oc2ccc(OCc3ccccc3F)cc2c1C(=O)NS(=O)(=O)C1CC1 [Cpd 175, N-(cyclopropylsulfonyl)-5-((2-fluorobenzyl)oxy)-2-methylbenzofuran-3-carboxamide] was tested, and the IC50 was < 1 µM. In the case of Cc1oc2ccc(OCc3cccc(F)c3)cc2c1C(=O)NS(=O)(=O)C1CC1 [Cpd 176, N-(cyclopropylsulfonyl)-5-((3-fluorobenzyl)oxy)-2-methylbenzofuran-3-carboxamide], the IC50 is reported as < 1 µM. Compound Cc1oc2ccc(OCc3ccc(F)cc3)cc2c1C(=O)NS(=O)(=O)C1CC1 [Cpd 177, N-(cyclopropylsulfonyl)-5-((4-fluorobenzyl)oxy)-2-methylbenzofuran-3-carboxamide] has an IC50 of 1 to 20 µM. Work on Cc1noc(C)c1CCNC(=O)c1c(C)oc2ccc(OCc3ccccc3)cc12 [Cpd 178, 5-(benzyloxy)-N-(2-(3,5-dimethylisoxazol-4-yl)ethyl)-2-methylbenzofuran-3-carboxamide] yielded an IC50 of 1 to 20 µM. Cc1nc(C)n(CCNC(=O)c2c(C)oc3ccc(OCc4ccccc4)cc23)n1 [Cpd 179, 5-(benzyloxy)-N-(2-(3,5-dimethyl-1H-1,2,4-triazol-1-yl)ethyl)-2-methylbenzofuran-3-carboxamide] was tested, and the IC50 was 1 to 20 µM. With Cc1oc2ccc(OCc3ccccc3)cc2c1C(=O)NC1CC2(CCNCC2)C1 [Cpd 180, 5-(benzyloxy)-2-methyl-N-(7-azaspiro[3.5]nonan-2-yl)benzofuran-3-carboxamide] the IC50 was < 1 µM. In the case of Cc1oc2ccc(OCc3ccccc3)cc2c1C(=O)NC1CC2CCC(C1)N2C (stereo not drawn) [Cpd 181, 5-(benzyloxy)-2-methyl-N-(8-methyl-8-azabicyclo[3.2.1]octan-3-yl)benzofuran-3-carboxamide], the IC50 is reported as < 1 µM. With Cc1oc2ccc(OCc3ccccc3)cc2c1C(=O)N[C@@H]1C[C@H]2CC[C@@H](C1)N2C [Cpd 182, 5-(benzyloxy)-2-methyl-N-((1R,3s,5S)-8-methyl-8-azabicyclo[3.2.1]octan-3-yl)benzofuran-3-carboxamide] the IC50 was < 1 µM. For Cc1oc2ccc(OCc3ccccc3)cc2c1C(=O)N[C@H]1C[C@H]2CC[C@@H](C1)N2C [Cpd 183, 5-(benzyloxy)-2-methyl-N-((1R,3r,5S)-8-methyl-8-azabicyclo[3.2.1]octan-3-yl)benzofuran-3-carboxamide], the IC50 was < 1 µM. In the case of Cc1oc2ccc(OCc3ccccc3)cc2c1C(=O)N[C@@H]1C[C@H]2CCC[C@@H](C1)N2 [Cpd 184, 5-(benzyloxy)-N-((1R,3s,5S)-9-azabicyclo[3.3.1]nonan-3-yl)-2-methylbenzofuran-3-carboxamide], the IC50 is reported as < 1 µM.
